Assays:
[1] = tested on: formalin-induced nociceptive behaviors in rats; experiment: Test B: Formalin test (formalin-induced paw flinches); type: in vivo, rat; details: dose 200 (unit not given), dosed three hours prior to formalin
Text: The Formalin test is an assay that assesses the capacity of a compound to inhibit formalin-induced nociceptive behaviors in rats (D. Dubuisson, et al., Pain 4, 161-174 (1977); H. Wheeler-Aceto et al., Psychopharmacology 104, 3544 (1991); T. J. Coderre, et al., Pain 54, 43-50 (1993)). In the test, two distinctive phases of formalin-induced behaviors are observed. A first phase response, caused by acute nociception to the noxious chemical (formalin) injected into the paw, occurs between zero and five minutes. A quiescent period of 5 to 15 min post injection follows. After the quiescent period a second phase response, caused by sensitization of the central neurons in the dorsal horn, occurs after 15 minutes and lasts up to 60 minutes. Sensitization of the central neurons in the spine augments a noxious afferent input and causes a stronger pain barrage to be transmitted to the brain. Therefore, inhibition of the second phase response indicates a central mechanism of drug action.
The procedure for the formalin test is as follows: male rats are placed in a plexiglass chamber and observed for 30-45 min. to observe their baseline activity. Animals are either pretreated with vehicle or with different doses of a test compound. Animals are dosed with vehicle or test compound three hours prior to injection of 0.05 mL of sterile 1% formalin under the dorsal skin of a hind paw. The number of paw flinches (responses) during the first phase (0-5 min.) and the second phase (20-35 min.) are scored and recorded. Flinch response is compared with the mean score of a saline control group and calculated as percentage inhibition. The ED50 is the dose of compound which produces 50% inhibition of nociceptive response in the first or second phase response. First phase responses may be inhibited by compounds that act peripherally and by compounds that act centrally. Second phase response are inhibited by centrally active compounds.
Student's t-test was used for statistical analysis to determine the significance of compound effects. Data are reported as a dose that yielded a % inhibition of a response.

[2] = molecular target: T1, NMDA receptor glycine site (Rattus norvegicus, UniProt P35439); experiment: Test A: Inhibition of binding of [3H]-MDL105,519 to brain membranes; details: inhibition of 1.2 nM [3H]MDL105,519 binding, brain membranes (rat or human not given)
T1 construct: The rat brain membranes used in the experiments were obtained from Analytical Biological Services Inc; tissue Analytical Biological Services Inc; host or cells: rat brain membranes (cerebral cortex and hippocampus, male Sprague Dawley rats)
Text: Test A: Inhibition of Binding of [^3H]-MDL105,519:
Binding of compounds to the NMDA receptor glycine site may be assessed by measuring the ability of test compounds to inhibit the binding of tritiated MDL105,519 to brain membranes bearing the receptor.
Briefly, fresh brain tissue including cerebral cortex and hippocampus from male Sprague Dawley rats was homogenized in 0.32 M sucrose and centrifuged at low speed to separate cellular membranes from other cellular components. The membranes were then washed 3 times using deionized water, followed by treatment with 0.04% Triton X-100. Finally, membranes were washed six times in 50 mM Tris citrate buffer, pH 7.4, and frozen at −80° C. until use.
[^3H]MDL105,519 (72 Ci/mmol) was purchased from Amersham. Cold MDL105,519 was purchased from Sigma/RBI. […] On the day of the experiment, brain membranes were thawed at room temperature and suspended in 50 mM tris acetate buffer, pH 7.4 (“TAB”). Seventy-five micro grams per milliliter protein (by using the BioRad dye) were used for competition binding. The experiments were carried out using 96-well plates. […] Non specific binding was determined by using 100 μM of unlabeled MDL105,519. […] After incubation, unbound [^3H]MDL105,519 was removed by filtration onto GF/B Unifilter plates using a Packard harvester. Filters were washed four times with ice cold TAB (total of 1.2 mL buffer). The plates were dried overnight at room temperature and bound radioactivity was measured on a Packard TopCount after the addition of 45 μL per well of the MICROSCINT O.
Human Brain Membranes: Human brain membranes were obtained from Analytical Biological Services Inc., and assays were performed as described for rat membranes.
Data analysis: Data was analyzed using a Microsoft Excel spreadsheet and GraphPad Prizm software and potency of compounds is expressed as the Ki (nM).

[3] = tested on: CCI rats (thermal hyperalgesia); experiment: Test C: Neuropathic pain model (Chronic Constriction Injury), thermal hyperalgesia, paw withdrawal latency; type: in vivo, rat; details: oral
Text: Test C: Neuropathic Pain Model (Chronic Constriction Injury):
The anti-hyperalgesic properties of a compound may be tested with the Chronic Constriction Injury (“CCI”) model. The test is a model for neuropathic pain associated with nerve injuries that can arise directly from trauma and compression, or indirectly from a wide range of diseases such as infection, cancer, metabolic conditions, toxins, nutritional deficiencies, immunological dysfunction, and musculoskeletal changes. In the model a unilateral peripheral hyperalgesia is produced in rats by nerve ligation (G. J. Bennett, et al., Pain 33, 87-107 (1988)).
Procedurally, Sprague-Dawley rats (250-350 g) are anesthetized with sodium pentobarbital and the common sciatic nerve is exposed at the level of the mid thigh by blunt dissection through the biceps femoris. A section of nerve (about 7 mm), proximal to the sciatic trifucation, is freed of tissue and ligated at four positions with chromic gut suture. The suture is tied with about 1 mm spacing between ligatures. The incision is closed in layers and the animals are allowed to recuperate. Thermal hyperalgesia is measured using a paw-withdrawal test (K. Hargreaves, et al., Pain 32, 77-88 (1988)). To perform the test, animals are habituated on an elevated glass floor. A radiant heat source is aimed at the mid-plantar hindpaw (sciatic nerve territory) through the glass floor with a 20 second cut-off used to prevent injury to the skin. The latencies for the withdrawal reflex in both hind paws are recorded.
Injured paws with ligated nerves show shorter paw withdrawal latencies compared to the uninjured or sham operated paws. Responses to test compounds are evaluated at different times after oral administration to determine the onset and duration of compound effect. When performing the test, groups of CCI rats receive either vehicle or the test compound orally three times daily for 5 days. Paw withdrawal latencies are measured each day 10 min before and 2 or 3 hr. after the first daily dose. Compound efficacy is expressed as mean percentage decrease of hyperalgesia compared to that of vehicle-treated animals, calculated as follows:
(Mean of vehicle group−Mean of compound group)×100/(Mean of vehicle group).
Data analysis was performed by the multiple means comparison test (Dunnett's test) and results are expressed and compound potencies are expressed as the MED (minimum effective dose), in mg/Kg/day, that yields a percent (%) decrease in hyperalgesia that is statistically significant.

Cc1cc(C)c(-n2nc(O)c3[nH]c4cc(Cl)ccc4c(=O)c3c2=O)c(C)c1 [Ex. 1, 7-Chloro-4-hydroxy-2-(2,4,6-trimethylphenyl)-1,2,5,10-tetrahydropyridazino[4,5-b]quinoline-1,10-dione]
Test B First phase Dose (% Inh.): % inhibition of nociceptive response ([1]; first phase (0-5 min)): 200 (43%)
Test B Second phase Dose (% Inh.): % inhibition of nociceptive response ([1]; second phase (20-35 min)): 200 (54%)
melting point: 187 to 189 °C
Ki [2]: 39.9 nM
Test C (% Inh.): percent decrease in hyperalgesia ([3]; at the MED): 82%
Test C MED (minimum effective dose) ([3]; three times daily for 5 days): 15 mg/kg/day

From patent US20030181449A1 (priority 2003, published 2003)
